Among the data in paper PMC9881143 (2023) are binding values, retold here.

Assay [1] relates to THF-II-lotiTL (RNA, riboswitch) GGCGUGGUCCGUUCAACUCGUUCCUCGAAAGAGGAACUACGGGAGACGCC
Kind of assay: X-ray crystallography. The note with it: co-crystal, 0.1 M sodium citrate pH 6.5, 1.5-2.5 M ammonium sulfate, 16 °C; RNA:ligand 1:5.

Assay [2] deals with THF-II-lotiTL C22G mutant (THF-II-lotiTL-C22G) (RNA, riboswitch) GGCGUGGUCCGUUCAAGUCGUUCCUCGAAAGAGGAACUACGGGAGACGCC
Briefly: ITC. The note with it: K+ 100 mM, Mg2+ (concentration not stated for this titration); 20 mM Tris-HCl pH 7.5, 1 mM TCEP, 25 °C; 0.75 mM ligand in syringe into 30 μM RNA.

In assay [3] the test system is THF-II-lotiTL C22U mutant (RNA, riboswitch) GGCGUGGUCCGUUCAAUUCGUUCCUCGAAAGAGGAACUACGGGAGACGCC
Kind of assay: ITC. To be noted: K+ 100 mM, Mg2+ (concentration not stated for this titration); 20 mM Tris-HCl pH 7.5, 1 mM TCEP, 25 °C; 0.75 mM ligand in syringe into 30 μM RNA.

Assay [4] concerns THF-II-lotiTL U44C mutant (RNA, riboswitch) GGCGUGGUCCGUUCAACUCGUUCCUCGAAAGAGGAACCACGGGAGACGCC
Kind of assay: ITC. To be noted: K+ 100 mM, Mg2+ (concentration not stated for this titration); 20 mM Tris-HCl pH 7.5, 1 mM TCEP, 25 °C; 0.75 mM ligand in syringe into 30 μM RNA.

For assay [5], the system named is THF-II-lotiTL U44A mutant (RNA, riboswitch) GGCGUGGUCCGUUCAACUCGUUCCUCGAAAGAGGAACAACGGGAGACGCC
Kind of assay: ITC. The note with it: K+ 100 mM, Mg2+ (concentration not stated for this titration); 20 mM Tris-HCl pH 7.5, 1 mM TCEP, 25 °C; 0.75 mM ligand in syringe into 30 μM RNA.

Turning to `Nc1nc2c(c(=O)[nH]1)N=C([C@H](O)[C@H](O)CO)CN2`, the binding entry in assay [1] is given as “yes”.

Take `Nc1nc2[nH]ccc2c(=O)[nH]1`: the binding result in assay [1] is given as “yes”.

Consider `Nc1nc2c(c(=O)[nH]1)N[C@@H](CNc1ccc(C(=O)N[C@@H](CCC(=O)O)C(=O)O)cc1)CN2`, for which the binding result in assay [2], in assay [3], in assay [4] and in assay [5] was “no” each time.

Regarding `C[C@H](O)[C@H](O)[C@H]1CNc2nc(N)[nH]c(=O)c2N1`, the binding entry in assay [1] is listed as “yes”.
